From article PMC4770092, “Subnanometre enzyme mechanics probed by single-molecule force spectroscopy” (Nature Communications, 2016)

Key:
AdK 42-144 [1] = target: T1, AdK 42-144 (Aquifex aeolicus, UniProt O66490, INS42C/INS144C); test: single-molecule optical tweezers, AP5A competition assay; format: binding; settings: 50 mM Tris pH 7.5, 200 mM KCl, about 10 pN load
T1 construct: full length, Cys inserted between 42/43 and 144/145; N-terminal spacer MAAKGELSG, C-terminal spacer and His6 kept; synthetic gene in pET11a, E. coli BL21(DE3); DNA handles on Cys in trap assay
T1 sequence (O66490 other isoform, or with tags, fused parts or gaps INS42C/INS144C): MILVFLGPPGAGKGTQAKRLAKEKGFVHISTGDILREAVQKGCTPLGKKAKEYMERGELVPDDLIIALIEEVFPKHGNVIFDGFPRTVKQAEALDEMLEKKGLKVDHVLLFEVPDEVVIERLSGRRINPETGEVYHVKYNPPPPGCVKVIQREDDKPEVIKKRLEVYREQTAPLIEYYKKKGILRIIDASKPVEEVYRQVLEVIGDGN

AdK 42-144 [2] = target: T1, AdK 42-144; test: single-molecule optical tweezers, lid closing/opening; format: binding; settings: 50 mM Tris pH 7.5, 200 mM KCl; bisubstrate inhibitor

Row | SMILES | single-molecule optical tweezers, lid closing/opening (AdK 42-144 [2]) | also measured
1 | Nc1ncnc2c1ncn2[C@@H]1O[C@H](COP(=O)(O)OP(=O)(O)O)[C@@H](O)[C@H]1O [ADP] |  | KD (AdK 42-144 [1]; Mg-ADP, AP5A competitor): nucleotides ADP (yellow), Mg-ADP (green) and Mg-ATP (blue)
2 | Nc1ncnc2c1ncn2[C@@H]1O[C@H](COP(=O)(O)OP(=O)(O)OP(=O)(O)OP(=O)(O)OC[C@H]2O[C@@H](n3cnc4c(N)ncnc43)[C@H](O)[C@@H]2O)[C@@H](O)[C@H]1O [AP4A] | We found that AP4A induces full closing of AdK indistinguishable from AP5A | 
3 | Nc1ncnc2c1ncn2[C@@H]1O[C@H](COP(=O)(O)OP(=O)(O)OP(=O)(O)OP(=O)(O)OP(=O)(O)OP(=O)(O)OC[C@H]2O[C@@H](n3cnc4c(N)ncnc43)[C@H](O)[C@@H]2O)[C@@H](O)[C@H]1O [AP6A] | AP6A binds with the same affinity as AP5A despite its significantly reduced closing distance | 
4 | Nc1ncnc2c1ncn2[C@@H]1O[C@H](COP(=O)(O)OP(=O)(O)OP(=O)(O)O)[C@@H](O)[C@H]1O [ATP] |  | KD (AdK 42-144 [1]; Mg-ATP, 1 μM AP5A competitor): nucleotides ADP (yellow), Mg-ADP (green) and Mg-ATP (blue)
